Columns and labels:
[1] = tested on: AngII/PCSK9-induced AAA mouse model; assay: Ang II plus hypercholesterolemia (AngII/PCSK9) induced AAA mouse model; assay type: in vivo
Procedure: FIG. 1. Characterization of the protective effect of NO2—OA (10-nitro-octadec-9-enoic acid) in the Ang II plus hypercholesterolemia-induced AAA mouse model. (A) Schematic illustration of the in vivo experimental design. Ten week old male C57BL/6 mice were IP injected with AAV carrying PCSK9 gain-of-function (D377Y) mutation and fed a western diet. After two weeks, each mouse was implanted with a pump delivering AngII at a rate of 1,500 ng/kg/min plus an additional pump containing either PEG-400 (vehicle), OA or NO2—OA with a delivery rate of 5 mg/kg/day (n=25 to 30 per group) and carried to the endpoint for another four weeks. Mice with ruptured aorta within the first week or with total plasma cholesterol less than 250 mg/dl were excluded from the study. (B) Representative morphological differences of the abdominal aorta. (C) AAA incidence calculated by using 1.2 mm as the cutoff diameter indicated by the dotted line in (D). (D) Average maximal diameter of the suprarenal aorta region. (E) Representative H&E and VVG staining of the paraffin-embedded suprarenal aortic cross-sections (5 μm). (F) Grade of elastic fiber degradation in the aorta (1 to 4). A 2×3 Fisher's exact test followed by posthoc test was performed for (C). For (D) and (F), the Kruskal-Wallis test followed by Dunn's multiple comparisons was performed. Continuous data are presented as mean±SEM. Scale bar=20 μm for (E). A p<0.05 for both the main test and post hoc test was considered statistically significant.
Ten weeks old male C57BL/6J mice were purchased from The Jackson Laboratory. The murine AAA model induced by AngII/PCSK9 gain-of-function mutation is well-established. After acclimation for 1 week, mice were fed a western diet (TD.88137, Envigo) and intraperitoneally injected with 2×1011 genomic copies of AAV-PCSK9.D377Y (AAV serotype 8, Penn Vector Core). Two weeks later, each mouse was subcutaneously implanted with two osmotic pumps (Model #2004, Alzet). One was loaded with AngII (#H-1706, Bachem), releasing at a rate of 1,500ng/kg/min, while the other one was loaded with PEG-400, OA or NO2—OA at a delivery rate of 5 mg/kg/day for OA or NO2—OA. After 4-weeks infusion, mice were euthanized and the maximal outer diameter of the suprarenal aorta was assessed with a digital caliper by a third person blinded to the treatment. Suprarenal aortas with a maximal diameter ≥50% larger than standard size (≥1.2 mm) were considered as abdominal aortic aneurysms. Mice dead within the first week of pump implantation or with a serum total cholesterol level less than 250 mg/dL were excluded from the study. All animal procedures were performed following the protocols approved by the Institutional Animal Care & Use Committee (IACUC) at the University of Michigan.
H&E and Verhoeff Van Gieson staining of paraffin or frozen sections of mouse suprarenal abdominal aorta were performed by the In-Vivo Animal Core at the University of Michigan. Elastin degradation grade was calculated as we previously reported.

[2] = tested on: circulating MCP1 and IL6; assay: Circulating cytokine ELISA in AAA model mice; assay type: in vivo, mouse
Excerpt: (§1) FIG. 2. […] (A) Quantification of gene expression levels in the mice suprarenal aorta region by real-time PCR (n=3 to 4). (B, C) Serum cytokines levels measured by ELISA (n=8 to 11). (D) FACS of single cells isolated from the mice suprarenal aorta region. Each sample is the pool of cells from three mice (n=3). (E, F) Quantification of the percentage of CD45+ leukocytes and CD64+, CD11c+M1-like macrophages in total cells from the FACS analysis. Ordinary one-way ANOVA followed by Tukey's test was performed for (A), (E) and (F). For ELISA in (B) and (C), to avoid the effect of the non-detected data point, a non-parametric Kruskal-Wallis test followed by Dunn's multiple comparisons was performed by adding zero to the missing data point. Data presented as mean±SEM. A p<0.05 for both the main test and post hoc test was considered statistically significant.
MCP1, TNFα and IL6 levels in mouse plasma were measured by ELISA performed by the Cancer Center Immunology Core at the University of Michigan.

[3] = tested on: leukocyte/macrophage infiltration in the vasculature; assay: FACS of single cells from mouse suprarenal aorta; assay type: in vivo; details: mean±SEM
Excerpt: as §1
The suprarenal aorta region from euthanized mice were completely perfused with PBS containing 2% of heparin. Tissues were digested using a cocktail of 450 U/mL collagenase type I (#17100-017, Gibco), 125 U/mL collagenase type XI (#C7657, Sigma-Aldrich), 60 U/mL hyaluronidase type I-s (#H3606, Sigma-Aldrich) and 60 U/mL DNase-I (#10104159001, Roche) at 37° C. for 90 minutes. Single cells filtered through a 70 μm cell strainer were blocked by Fc block (#14-0161-85, eBioscience) for 5 minutes on ice. […] Data were analyzed using FlowJo v10.6.1.

[4] = tested on: MMP9; assay: Gelatin zymography in BMDMs, MMP9; assay type: cell-based, mouse; details: 2.5 μM, 12 h
Procedure: FIG. 4. NO2—OA inhibits PGE2-dependent EP4 cAMP downstream signaling. (A) Three parameters nonlinear regression of EP4 global fitting dose-response curve. […] (B) HTRF assay of cAMP-Gs coupled receptor. […] (D) Representative figure of gelatin zymography indicating MMP 2/9 activity. BMDMs were incubated with L-902,688 (100 nM) plus vehicle, OA (2.5 μM) or NO2—OA (2.5 μM) for 12 h, and MMP 2&9 activity was measured by gelatin zymography. For (A) and (B), three or four parameters, global or separate fitting, constraints, and the significance of EC50 were determined in Prism. Data presented as mean±SEM. A p<0.05 was considered statistically significant.
Freshly differentiated BMDMs were cultured in the bone marrow macrophage-differentiation media until 80% confluence. […] Then, the supernatant was collected and centrifuged to remove any residual debris. Measurement of MMP2 and MMP9 activity was performed by running the supernatant (using detergent-free loading buffer) in 1% gelatin gel, followed by staining with Coomassie blue.

[5] = cited from earlier work

CCCCCCCCC(=CCCCCCCCC(=O)O)[N+](=O)[O-] [NO2—OA, 10-nitro-octadec-9-enoic acid]
AAA incidence ([1]; 5 mg/kg/day subcutaneous infusion, after 4 weeks, cutoff diameter 1.2 mm): 28.6% | maximal diameter of the suprarenal aorta region ([1]; 5 mg/kg/day subcutaneous infusion, after 4 weeks, mean±SEM): 1.16±0.09 mm | ECM degradation / elastin fiber degradation ([1]; 5 mg/kg/day, 4 weeks, VVG staining, grade 1 to 4): significantly reduced | protein level of circulating IL6 [2]: significantly decreased | protein level of circulating MCP1 [2]: significantly decreased | leucocytes (CD45+) in the vasculature, percentage of total cells [3]: 14.87±3.28% | pro-inflammatory M1 like macrophages (CD64+, CD11c+), percentage of total cells [3]: 3.27±0.42% | PGE2-upregulated MMP9 (gelatin zymography) [4]: significantly diminished | Nrf2-regulated genes and heat shock response in peripheral blood mononuclear cells ([5]; administration in humans): induces | circulating interleukin 6 (IL6) level ([5]; human volunteers): decreased | circulating monocyte chemoattractant protein 1 (MCP1) level ([5]; human volunteers): decreased | safety in Phase 1 human study ([5]; within a therapeutic window 25-450 mg/day): safe

Source: patent US12728111B2, “Electrophilic compounds and electrophilic prodrugs for treating aneurysm” (University of Pittsburgh—Of the Commonwealth System of …, priority 2020, dated 2026)
